Experimental data: US11058676B2, “Quinolinone lysyl oxidase-like 2 inhibitors and uses thereof” (PHARMAKEA, INC., priority 2016, dated 2021)

System: C57Bl/6 male mice
Assay: Mouse oropharyngeal bleomycin model of lung fibrosis
Assay type: in vivo
Details: dosed prophylactically at 60 mg/kg p.o.
Method: Example B-3: Mouse Oropharyngeal Bleomycin Model of Lung Fibrosis
Lung fibrosis is induced in C57Bl/6 male mice by administering bleomycin (0.1-4 U/kg) via oropharyngeal instillation. Mice are either pretreated with vehicle or test compound (1 day to 1 hour) orally, intraperitoneally, intravenously or subcutaneously before bleomycin installation (prophylactic dosing) or 7-14 days post bleomycin instillation (therapeutic dosing). The route and frequency of dosing are based on previously determined pharmacokinetic properties for the LOXL2 inhibitor in mouse. After bleomycin instillation animals are monitored daily for weight loss and clinical signs for 14-28 days prior to sacrifice. […] For histological examination, lung slices are stained with Masson's trichrome or Picro-Sirius red to measure cross-linked collagen as an indicator of fibrosis and an Ashcroft score of lung fibrotic and inflammatory damage determined. In addition, immunohistochemistry of fibrotic proteins such as a-smooth muscle actin can be recorded. […] After the acid hydrolysis, 25-100 μl of the supernatant is dried down, resuspended in 25 μl water and the hydroxyproline content determined by the addition of 0.5 ml Chloramine T solution (140 mg Chloramine T in 6.5 ml ddH2O+1 ml n-propanol+2.5 ml 1M sodium acetate) and incubation at room temperature for 20 min. […]

NCc1cc(=O)c2cc(Br)ccc2[nH]1 [Compound 1-3, 2-(Aminomethyl)-6-bromoquinolin-4(1H)-one]
efficacy in mouse oropharyngeal bleomycin model of lung fibrosis: efficacious
